Laboratory results: patent US9302991B2, “Arylamide derivatives as TTX-S blockers” (RaQualia Pharma Inc., priority 2010, dated 2016)

What follows are compounds tested against T1, human Nav1.7 channels (Homo sapiens, UniProt Q15858) (assay: FRET assay, human Nav1.7 (EFS on FDSS)). Conditions: CHO cells expressing human Nav1.7, read-out: IC50 against Nav1.7.
T1 construct: expressed in transfected cells; host or cells: CHO
Type: cell-based
Procedure, shortened: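 IC50 was derived from normalized 440 nm fluorescence ratios of the EFS-evoked membrane-potential response read on FDSS. Recombinant CHO cells were sequentially dye-loaded with coumarin/oxonol FRET pair at room temperature in pH 7.4 buffer before compound addition.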

T1 sequence (Q15858 whole entry): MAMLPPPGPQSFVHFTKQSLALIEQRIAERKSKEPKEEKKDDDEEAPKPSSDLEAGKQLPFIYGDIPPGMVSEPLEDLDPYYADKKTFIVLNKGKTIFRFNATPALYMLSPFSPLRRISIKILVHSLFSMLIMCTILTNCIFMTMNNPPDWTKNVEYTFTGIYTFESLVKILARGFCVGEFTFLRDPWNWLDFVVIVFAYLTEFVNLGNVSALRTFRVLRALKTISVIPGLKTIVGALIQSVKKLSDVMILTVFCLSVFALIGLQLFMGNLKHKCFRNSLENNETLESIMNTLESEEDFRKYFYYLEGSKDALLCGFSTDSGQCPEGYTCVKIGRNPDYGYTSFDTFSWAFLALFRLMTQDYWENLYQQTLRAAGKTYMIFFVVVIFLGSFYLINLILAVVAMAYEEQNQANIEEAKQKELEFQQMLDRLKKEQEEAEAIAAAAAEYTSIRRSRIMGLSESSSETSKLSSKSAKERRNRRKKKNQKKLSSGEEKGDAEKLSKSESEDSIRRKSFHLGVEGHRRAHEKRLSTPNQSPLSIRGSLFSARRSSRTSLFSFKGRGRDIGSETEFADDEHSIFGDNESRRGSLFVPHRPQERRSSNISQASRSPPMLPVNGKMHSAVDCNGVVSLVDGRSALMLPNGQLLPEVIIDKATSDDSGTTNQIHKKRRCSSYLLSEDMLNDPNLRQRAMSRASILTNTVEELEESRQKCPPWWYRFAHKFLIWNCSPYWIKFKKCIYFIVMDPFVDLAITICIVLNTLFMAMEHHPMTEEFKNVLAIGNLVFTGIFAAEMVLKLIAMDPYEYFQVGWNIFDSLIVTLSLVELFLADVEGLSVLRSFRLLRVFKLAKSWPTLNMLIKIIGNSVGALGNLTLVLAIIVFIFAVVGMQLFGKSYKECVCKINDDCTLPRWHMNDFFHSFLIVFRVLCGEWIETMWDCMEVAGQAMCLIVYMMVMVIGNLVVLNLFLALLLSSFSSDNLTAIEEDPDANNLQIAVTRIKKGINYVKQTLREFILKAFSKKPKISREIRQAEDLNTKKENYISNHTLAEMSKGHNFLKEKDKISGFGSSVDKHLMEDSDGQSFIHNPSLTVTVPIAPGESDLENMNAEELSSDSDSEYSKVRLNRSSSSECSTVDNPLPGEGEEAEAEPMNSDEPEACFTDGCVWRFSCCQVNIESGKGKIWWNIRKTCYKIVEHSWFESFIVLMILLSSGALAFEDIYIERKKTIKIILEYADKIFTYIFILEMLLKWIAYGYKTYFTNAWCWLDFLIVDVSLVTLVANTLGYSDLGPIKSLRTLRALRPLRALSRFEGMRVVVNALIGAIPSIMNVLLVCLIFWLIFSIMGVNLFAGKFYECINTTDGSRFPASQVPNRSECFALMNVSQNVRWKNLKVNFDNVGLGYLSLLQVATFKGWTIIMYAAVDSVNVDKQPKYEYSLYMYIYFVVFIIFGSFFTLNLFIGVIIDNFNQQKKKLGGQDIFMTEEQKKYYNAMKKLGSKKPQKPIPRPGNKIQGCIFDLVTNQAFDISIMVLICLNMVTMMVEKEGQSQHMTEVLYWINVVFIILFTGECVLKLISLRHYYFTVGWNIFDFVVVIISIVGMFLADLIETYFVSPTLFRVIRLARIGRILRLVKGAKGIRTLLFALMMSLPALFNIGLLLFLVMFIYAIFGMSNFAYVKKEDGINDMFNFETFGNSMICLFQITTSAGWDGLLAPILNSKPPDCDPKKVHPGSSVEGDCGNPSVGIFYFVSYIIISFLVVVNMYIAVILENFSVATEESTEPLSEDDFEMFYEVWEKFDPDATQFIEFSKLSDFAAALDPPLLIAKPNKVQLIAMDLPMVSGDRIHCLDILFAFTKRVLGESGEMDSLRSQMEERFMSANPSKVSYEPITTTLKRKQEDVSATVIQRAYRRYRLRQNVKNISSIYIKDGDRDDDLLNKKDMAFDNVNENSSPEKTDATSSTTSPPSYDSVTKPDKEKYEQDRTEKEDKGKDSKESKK

Structure (SMILES) | IC50 [nM]
CCC(=O)Nc1cc(C(=O)NCc2cnc(OCC(F)F)c(Cl)c2)cc(C)n1 [Example 618, N-((5-chloro-6-(2,2-difluoroethoxy)pyridin-3-yl)methyl)-2-methyl-6-propionamidoisonicotinamide] | < 1000
Cc1cc(C(=O)NCc2cnc(OCC(F)F)c(Cl)c2)cc(NC(=O)C(C)C)n1 [Example 620, N-((5-chloro-6-(2,2-difluoroethoxy)pyridin-3-yl)methyl)-2-isobutyramido-6-methylisonicotinamide] | < 1000
O=C(NCc1ccc(OCC(F)(F)C(F)F)nc1)c1ccnc(NC(=O)C2CC2)c1 [Example 635, 2-(cyclopropanecarboxamido)-N-((6-(2,2,3,3-tetrafluoropropoxy)pyridin-3-yl)methyl)isonicotinamide] | < 1000
O=C(NCc1ccc(OCC(F)(F)C(F)F)nc1)c1ccnc(NC(=O)C2CC2)n1 [Example 651, 2-(cyclopropanecarboxamido)-N-((6-(2,2,3,3-tetrafluoropropoxy)pyridin-3-yl)methyl)pyrimidine-4-carboxamide] | < 1000
O=C(NCc1cnc(OCC(F)F)c(Cl)c1)c1ccnc(NC(=O)C2CC2)c1 [Example 705, N-((5-chloro-6-(2,2-difluoroethoxy)pyridin-3-yl)methyl)-2-(cyclopropanecarboxamido)isonicotinamide] | < 1000
CC(=O)Nc1cc(C(=O)NCc2cnc(OCC(F)F)c(Cl)c2)cc(C)n1 [Example 706, 2-acetamido-N-((5-chloro-6-(2,2-difluoroethoxy)pyridin-3-yl)methyl)-6-methylisonicotinamide] | < 1000
CC(=O)Nc1cc(C(=O)NCc2cnc(OCC(F)(F)F)c(-c3ccco3)c2)ccn1 [Example 770, 2-acetamido-N-((5-(furan-2-yl)-6-(2,2,2-trifluoroethoxy)pyridin-3-yl)methyl)isonicotinamide] | < 1000
CC(=O)Nc1cc(C(=O)NCc2cnc(OCC(F)F)cc2C)cc(C)n1 [Example 778, 2-acetamido-N-((6-(2,2-difluoroethoxy)-4-methylpyridin-3-yl)methyl)-6-methylisonicotinamide] | < 1000
COc1c(CNC(=O)c2cc(C)nc(NC(C)=O)c2)cccc1C(F)(F)F [Example 819, 2-acetamido-N-(2-methoxy-3-(trifluoromethyl)benzyl)-6-methylisonicotinamide] | < 1000
COc1c(CNC(=O)c2ccnc(NC(=O)C(C)C)c2)cccc1C(F)(F)F [Example 820, 2-isobutyramido-N-(2-methoxy-3-(trifluoromethyl)benzyl)isonicotinamide] | < 1000
Cc1cc(C(=O)NCc2ccc(OCC(F)(F)F)nc2)cc(NC(=O)C2CC2)n1 [Example 822, 2-(cyclopropanecarboxamido)-6-methyl-N-((6-(2,2,2-trifluoroethoxy)pyridin-3-yl)methyl)isonicotinamide] | < 1000
Cc1cc(C(=O)NCc2cnc(OCC(F)F)c(Cl)c2)cc(NC(=O)C2CC2)n1 [Example 826, N-((5-chloro-6-(2,2-difluoroethoxy)pyridin-3-yl)methyl)-2-(cyclopropanecarboxamido)-6-methylisonicotinamide] | < 1000
Cc1cc(C(=O)NCc2ccc(OCC(F)(F)C(F)(F)F)nc2)cc(NC(=O)C2CC2)n1 [Example 827, 2-(cyclopropanecarboxamido)-6-methyl-N-((6-(2,2,3,3,3-pentafluoropropoxy)pyridin-3-yl)methyl)isonicotinamide] | < 1000
Cc1cc(C(=O)NCc2cnc(OCC(F)F)c(C)c2)cc(NC(=O)C2CC2)n1 [Example 851, 2-(cyclopropanecarboxamido)-N-((6-(2,2-difluoroethoxy)-5-methylpyridin-3-yl)methyl)-6-methylisonicotinamide] | < 1000
Cc1cc(C(=O)NCc2cccc(C(F)(F)F)c2)cc(NC(=O)C2CC2)n1 [Example 852, 2-(cyclopropanecarboxamido)-6-methyl-N-(3-(trifluoromethyl)benzyl)isonicotinamide] | < 1000
